In patent publication US4742073A (priority 1982, dated 1988):
Read-outs that look alike come from different tables or passages of the source.

Assays:
physchem = format: physicochemical
Excerpt: The assays would allow a formation of isopilocarpine or isopilocarpic acid of 1% to be detected.

[1] = Apparent partition coefficient 1-octanol/phosphate buffer pH 7.4; format: physicochemical; conditions: for log P: pH 7.4
[2] = pKa, solubility and other physicochemical properties; conditions: in words
eyes of the rabbits = assay: Ophthalmic pupillary diameter or miosis study; format: in vivo, male albino rabbits; conditions: for duration of miotic effect compared with pilocarpine / overall miotic effect compared with pilocarpine: 25 μl topical, pH 4.5, FIG. 3, in words; for duration of miotic activity of the di-esters: FIG. 5, 0.5% pilocarpine nitrate equivalent
Description: Twenty-five microliter volumes of each solution were administered by topical ophthalmic instillation to male albino rabbits, and pupillary diameter changes or miotic activities in the eyes of the rabbits were recorded as a function of time, and were compared. A detailed description of the procedure for the miosis study is given in Mitra & Mikkelson (1982) and references cited therein. […] Thus, the miotic activity observed after administration of a solution of O-benzoyl pilocarpic acid 4-methylbenzyl ester lasted for 4.5 hours as shown in FIG. 4. The equivalent concentrations and pH were the same as in the above experiment.
The compounds are: 4-methylbenzyl pilocarpic acid ester, O-benzoyl pilocarpic acid 4-methylbenzyl ester, and O-acetyl pilocarpic acid 4-methylbenzyl ester. In each of these three derivatives the R1 -substituent is the 4-methylbenzyloxy group. […] Duration of the activity of the di-esters is seen to be approximately 4.5 hours.
In FIG. 6 the compounds are the O-benzoyl 4-chlorobenzyl, the O-phenylacetyl benzyl, and the O-3-chlorobenzoyl benzyl pilocarpic acid esters. In FIG. 7 the compounds are the O-benzoyl benzyl, the O-butyryl 4-methylbenzyl and the O-nicotionyl benzyl pilocarpic acid esters. […] Again, the extended duration is apparent. Thus, even though the dosage level is less than in the previous experiments, the miotic effect is apparent for up to 4.5 hours after administration.

[3] = Degradation of O-acyl pilocarpic acid esters and formation of pilocarpine in 75% human plasma; format: in vitro ADME; conditions: for half-life: 75% plasma
Excerpt: ^b In 75% human plasma (pH 7.4) the 4methylbenzyl ester of pilocarpic
O--acyl esters as determined by HPLC.

[4] = Shelf-life / stability of aqueous solutions; format: physicochemical
Description: At such pH values the stability is much increased as compared with that at neutral and basic pH values. […] At these pH values solutions of the compound were predicted to have shelf-lives in excess of 8 years at 25° C. and 20 years at 20° C. as determined on the basis of temperature-accelerated kinetic stability studies.

[5] = Hydrolysis/stability of O-acyl pilocarpic acid esters in plasma-free buffer (specific base catalysis); format: physicochemical; conditions: for kOH (catalytic rate constant, specific base-catalyzed hydrolysis): 37° C., based on hydroxide ion activity; for half-life: buffer
Description: ^c The hydrolysis is specific basecatalyzed and the data shown were
obtained by extrapolating experimental rate constants at pH 10-12 to pH
7.4. At 20° C. the t0.5 values were 4.5 and 1.4 years, […]

[6] = octanol/phosphate buffer, pH 7.4, Partition coefficients (P)
[7] = 0.5% pilocarpine nitrate equivalent
[8] = 75% human plasma (pH 7.4) at 37° C., in words
[9] = 75% human plasma (pH 7.4) at 37° C., read-out: half-lives of degradation in 75% human plasma
[10] = pH 7.4, 20° C., hydrolysis in buffer pH 7.4, extrapolated (Table 2 footnote c), read-out: t0.5 values at 20° C. (converted)
[11] = pH 7.4, 37° C., extrapolated from rate constants at pH 10-12 to pH 7.4, read-out: t0.5 of hydrolysis to pilocarpic acid 4-methylbenzyl ester, pH 7.4 buffer (converted)
[12] = octanol/buffer, pH 7.4, di-esters (Table 3), read-out: log P octanol/buffer pH 7.4
[13] = octanol/phosphate buffer, pH 7.4, octanol / 0.05 M phosphate buffer pH 7.40, O-acyl derivatives of pilocarpic acid 4-methylbenzyl ester (Table 2), read-out: Partition coefficients (P) (converted)
[14] = human, pH 7.4, 37° C., di-esters (Table 3), read-out: t0.5 human plasma (75%)
[15] = 25 μl of 0.25% (pilocarpine nitrate equivalent), FIGS. 6 and 7

Q: For `CCCCOC(=O)[C@@H](CC)[C@H](CO)Cc1cncn1C` [Example 2, Pilocarpic Acid Butyl Ester], which half-life (physchem; buffer, pH 7.4) is on record?
A: 13.7 h

Q: What about the logD [1, 6] of the same molecule?
A: 1.58

Q: For `CC[C@H](C(=O)OCc1ccccc1)[C@H](CO)Cc1cncn1C` [Example 3, Pilocarpic Acid Benzyl Ester], which half-life (physchem; buffer, pH 7.4) is on record?
A: 0.833 h

Q: What about the logD [1, 6] of the same molecule?
A: 1.82

Q: What about the hygroscopicity [2] of the same molecule?
A: hygroscopic

Q: And the “duration of miotic effect compared with pilocarpine” value (eyes of the rabbits; [7])?
A: most significantly and dramatically longer

Q: What about the “overall miotic effect compared with pilocarpine” value (eyes of the rabbits; [7]) of the same molecule?
A: significantly greater in their overall effect

Q: Which results are given for `CC[C@H](C(=O)OCc1ccc(Cl)cc1)[C@H](CO)Cc1cncn1C` [Example 4, Pilocarpic Acid 4-Chlorobenzyl Ester]?
A: half-life (physchem; buffer, pH 7.4): 0.5 h; logD [1, 6]: 2.54; duration of miotic effect compared with pilocarpine (eyes of the rabbits; [7]): most significantly and dramatically longer; overall miotic effect compared with pilocarpine (eyes of the rabbits; [7]): significantly greater in their overall effect

Q: What does the source list for `CC[C@H](C(=O)OCc1ccc(C)cc1)[C@H](CO)Cc1cncn1C` [Example 5, Pilocarpic Acid 4-Methylbenzyl Ester]?
A: half-life (physchem; buffer, pH 7.4): 1.28 h; half-life (physchem; plasma-free buffer): 1.28 h; extent of cyclization to pilocarpine in plasma [3, 8]: cyclized quantitatively to pilocarpine; half-life ([3]; 75% human plasma (pH 7.4) at 37° C., after formation from the O-acyl esters): 1.38 h; logD [1, 6]: 2.31; shelf-life (time for 10% decomposition) at 4° C. ([4]; aqueous solution pH 4.0, 4° C.): 3.8 years; shelf-life (time for 10% decomposition) at 20° C. ([4]; aqueous solution pH 4.0, 20° C.): about 1.5 years; duration of miotic effect compared with pilocarpine (eyes of the rabbits; [7]): most significantly and dramatically longer; overall miotic effect compared with pilocarpine (eyes of the rabbits; [7]): significantly greater in their overall effect

Q: For `CC[C@H](C(=O)OCc1ccccc1C)[C@H](CO)Cc1cncn1C` [Example 6, Pilocarpic Acid 2-Methylbenzyl Ester], which logD [1, 6] is on record?
A: 2.27

Q: With `CC[C@H](C(=O)OCCc1ccccc1)[C@H](CO)Cc1cncn1C` [Example 9, Pilocarpic Acid 2-Phenylethyl Ester] as the molecule, how does the “log P” value ([1]; octanol/phosphate buffer) read?
A: 2.16

Q: What about the logD [1, 6] of the same molecule?
A: 2.16

Q: What does the source list for `CC[C@H](C(=O)OCc1ccc(C)cc1)[C@H](COC(=O)c1ccccc1)Cc1cncn1C` [Example 11, O-Benzoyl Pilocarpic Acid 4-Methylbenzyl Ester]?
A: yield of pilocarpic acid 4-methylbenzyl ester formed in plasma [3, 8]: quantitative amounts; sum of the concentrations of O-benzoyl di-ester, intermediate ester and pilocarpine at any time ([3]; 75% human plasma, FIG. 2): 100±3%; half-life [3, 9]: 0.267 h; kOH (catalytic rate constant, specific base-catalyzed hydrolysis) [5]: 0.0667 M⁻¹ s⁻¹; half-life [5, 10]: 1640 days; half-life [5, 11]: 200 days; logD [1, 12]: 4.7; logD [1, 13]: 4.7; duration of miotic activity (eyes of the rabbits; 25 μl, 0.5% pilocarpine nitrate equivalent, FIG. 4): 4.5 h; bioavailability relative to pilocarpine (eyes of the rabbits; FIG. 4, 0.5% pilocarpine nitrate equivalent): approximately 4 fold; duration of miotic activity of the di-esters (eyes of the rabbits): approximately 4.5 hours

Q: With `CC[C@H](C(=O)OCc1ccc(C)cc1)[C@H](COC(C)=O)Cc1cncn1C` [Example 12, O-Acetyl Pilocarpic Acid 4-Methylbenzyl Ester] as the molecule, how does the “yield of pilocarpic acid 4-methylbenzyl ester formed in plasma” value [3, 8] read?
A: quantitative amounts

Q: And the half-life [3, 9]?
A: 0.4 h

Q: What about the “kOH (catalytic rate constant, specific base-catalyzed hydrolysis)” value (from here on “kOH”) [5] of the same molecule?
A: 0.21 M⁻¹ s⁻¹

Q: And the half-life [5, 10]?
A: 511 days

Q: What about the half-life [5, 11] of the same molecule?
A: 62.5 days

Q: What about the logD [1, 12] of the same molecule?
A: 3.16

Q: What about the logD ([1]; octanol/phosphate buffer, pH 7.4, octanol / 0.05 M phosphate buffer pH 7.40 (Table 2), read-out: log P) of the same molecule?
A: 3.16

Q: What about the logD [1, 13] of the same molecule?
A: 3.16

Q: And the “duration of miotic activity of the di-esters” value (eyes of the rabbits)?
A: approximately 4.5 hours

Q: With `CC[C@H](C(=O)OC(C)c1ccccc1)[C@H](CO)Cc1cncn1C` (some centres unmarked) [Example 13, Pilocarpic Acid 1-Phenylethyl Ester] as the molecule, how does the “log P” value ([1]; octanol/phosphate buffer) read?
A: 2.08

Q: And the logD [1, 6]?
A: 2.08

Q: Which half-life [3, 14] does the source give for `CC[C@H](C(=O)OCc1ccccc1)[C@H](COC(=O)c1ccccc1)Cc1cncn1C` [Example 14, O-Benzoyl Pilocarpic Acid Benzyl Ester] here?
A: 0.2 h

Q: What about the “kOH” value [5] of the same molecule?
A: 0.0633 M⁻¹ s⁻¹

Q: What about the logD [1, 12] of the same molecule?
A: 4.22

Q: And the “predicted shelf-life at 20° C.” value ([4]; aqueous solution pH 3-5, 20° C., temperature-accelerated kinetic stability studies)?
A: > 20 years

Q: And the “predicted shelf-life at 25° C.” value ([4]; aqueous solution pH 3-5, 25° C., temperature-accelerated kinetic stability studies)?
A: > 8 years

Q: And the “pH region of maximum stability” value ([4]; aqueous solutions)?
A: 3-5 pH

Q: And the “time for which miotic effect is apparent” value (eyes of the rabbits; [15])?
A: up to 4.5 hours

Q: Which half-life [3, 14] does the source give for `CC[C@H](C(=O)OCc1ccc(Cl)cc1)[C@H](COC(=O)c1ccccc1)Cc1cncn1C` [Example 15, O-Benzoyl Pilocarpic Acid 4-Chlorobenzyl Ester] here?
A: 0.283 h

Q: What about the “kOH” value [5] of the same molecule?
A: 0.0567 M⁻¹ s⁻¹

Q: What about the logD [1, 12] of the same molecule?
A: 4.75

Q: And the “time for which miotic effect is apparent” value (eyes of the rabbits; 25 μl of 0.125% (pilocarpine nitrate equivalent), FIG. 6)?
A: up to 4.5 hours

Q: With `CC[C@H](C(=O)OCCc1ccccc1)[C@H](COC(=O)c1ccccc1)Cc1cncn1C` [Example 16, O-Benzoyl Pilocarpic Acid 2-Phenylethyl Ester] as the molecule, how does the half-life [3, 14] read?
A: 0.25 h

Q: And the “kOH” value [5]?
A: 0.0633 M⁻¹ s⁻¹

Q: And the logD [1, 12]?
A: 4.6

Q: For `CC[C@H](C(=O)OCc1ccccc1)[C@H](COC(=O)c1cccc(Cl)c1)Cc1cncn1C` [Example 17, O-3-Chlorobenzoyl Pilocarpic Acid Benzyl Ester], which half-life [3, 14] is on record?
A: 0.417 h

Q: What about the “kOH” value [5] of the same molecule?
A: 0.243 M⁻¹ s⁻¹

Q: What about the logD [1, 12] of the same molecule?
A: 4.93

Q: What about the “time for which miotic effect is apparent” value (eyes of the rabbits; [15]) of the same molecule?
A: up to 4.5 hours

Q: What does the source list for `CCCC(=O)OCC(Cc1cncn1C)C(CC)C(=O)OCc1ccc(C)cc1` (centres unmarked) [Example 18, O-Butyryl Pilocarpic Acid 4-Methylbenzyl Ester]?
A: half-life [3, 14]: 0.25 h; kOH (catalytic rate constant, specific base-catalyzed hydrolysis) [5]: 0.0583 M⁻¹ s⁻¹; logD [1, 12]: 4.09; time for which miotic effect is apparent (eyes of the rabbits; [15]): up to 4.5 hours

Q: Which results are given for `CC[C@H](C(=O)OCc1ccccc1)[C@H](COC(=O)Cc1ccccc1)Cc1cncn1C` [Example 19, O-Phenylacetyl Pilocarpic Acid Benzyl Ester]?
A: half-life [3, 14]: 0.0667 h; kOH (catalytic rate constant, specific base-catalyzed hydrolysis) [5]: 0.362 M⁻¹ s⁻¹; logD [1, 12]: 3.85; time for which miotic effect is apparent (eyes of the rabbits; [15]): up to 4.5 hours

Q: Which half-life [3, 14] does the source give for `CC[C@H](C(=O)OCc1ccccc1)[C@H](COC(=O)c1cccnc1)Cc1cncn1C` [Example 20, O-Nicotinoyl Pilocarpic Acid Benzyl Ester] here?
A: 0.1 h

Q: And the “kOH” value [5]?
A: 0.74 M⁻¹ s⁻¹

Q: What about the logD [1, 12] of the same molecule?
A: 2.9

Q: What about the “time for which miotic effect is apparent” value (eyes of the rabbits; [15]) of the same molecule?
A: up to 4.5 hours

Q: With `CC[C@@H]1C(=O)OC[C@@H]1Cc1cncn1C` [Pilocarpine, reference compound] as the molecule, how does the “water solubility of pilocarpine” value ([2]; free base form and various salts) read?
A: extremely water-soluble

Q: What about the “shelf life in aqueous solutions” value ([4]; pilocarpine, pH 6.4 and 20° C.) of the same molecule?
A: less than 1 year
